Results on 21 compounds are retold here after PubChem BioAssay (NCI).

Among the test systems are LXFL 529 NSCLC; KM20L2 colon; DMS 114 small cell lung; DLD-1 colon; DU-145 prostate; MDA-MB-435; MCF7 breast; MDA-N.
Holding throughout (assay): inhibition of tumour cell growth, NCI panel, 48 h

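In this assay, cells in 96-well plates receive the compound at five concentrations for 48 hours. Endpoints are linearly interpolated between the surrounding concentrations. At the GI50, growth is halved. The concentration for full growth arrest is given as TGI.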 Where only a bound is given, the exact number is not on record here.

In the case of `CSc1nc2c(nc(C)c(=O)n2C2OCC(OC(C)=O)C(OC(C)=O)C2OC(C)=O)c(=O)[nH]1` (stereo unspecified), the TGI in the assay with LXFL 529 NSCLC, with KM20L2 colon, with DMS 114 small cell lung and in the assay on DLD-1 colon was over 100 µM each time.
In the case of `COc1cc(Nc2cn[nH]c2-c2ccc(Cl)cc2)cc(OC)c1OC`, the GI50 in the assay on DU-145 prostate was 8.73 µM; with MDA-MB-435, 1.26 µM; with MCF7 breast, 3.3 µM. Besides, the TGI with DU-145 prostate is 42 µM; in the assay with MDA-MB-435, 4.24 µM; in the assay on MCF7 breast, 53.2 µM.
Consider `O=C1CCCC/C(=C/c2ccccc2)N1`, for which the TGI with LXFL 529 NSCLC, with KM20L2 colon, in the assay with DMS 114 small cell lung and in the assay on DLD-1 colon was over 100 µM throughout.
Consider `Cn1cc(C2=C(c3ccc4ccccc4c3)C(=O)NC2=O)c2ccccc21`, for which the GI50 with DU-145 prostate is over 25 µM; in the assay on MDA-MB-435, 0.885 µM; with MCF7 breast it was 2.19 µM. The TGI is over 25 µM in the assay with DU-145 prostate, over 13.6 µM in the assay on MDA-MB-435 and over 25 µM in the assay on MCF7 breast.
On to `C#Cc1cccc(Nc2ncnc3cc(OC)c(OCCCCCCC(=O)NO)cc23)c1`, for which the results for the GI50 in the assay on DU-145 prostate, in the assay with MDA-MB-435 and in the assay with MCF7 breast were 0.136 µM, 0.145 µM and 0.19 µM, respectively. In addition, the TGI with DU-145 prostate was determined as 4.45 µM; with MDA-MB-435, 0.528 µM; in the assay with MCF7 breast it was 3.5 µM.
Turning to `O=C1NC(=Nc2ccccc2)S/C1=C\c1ccc2ncccc2c1`, the GI50 with DU-145 prostate was over 25 µM; with MDA-MB-435 it was 0.62 µM; with MCF7 breast, 0.953 µM. Besides, the TGI was over 25 µM in the assay on DU-145 prostate, 1.88 µM in the assay on MDA-MB-435 and over 25 µM with MCF7 breast.
With `Cc1ccc(SC(C)/C=C/NNC2=NC(c3ccccc3)C(c3ccccc3)=NN2)cc1` (stereo unspecified), the TGI was over 100 µM in the assay with LXFL 529 NSCLC, 27.6 µM in the assay with KM20L2 colon, over 100 µM in the assay on DMS 114 small cell lung and over 100 µM with DLD-1 colon.
Take `O=S(=O)(Nc1cc(F)cc(Cl)c1)c1ccc(-c2cnc(C3CC3)o2)cc1`: the values for the GI50 with DU-145 prostate, in the assay with MDA-MB-435 and in the assay with MCF7 breast were 3.58 µM, 0.274 µM and 0.485 µM, respectively. The TGI with DU-145 prostate is 23.2 µM; with MDA-MB-435 it was 1.22 µM; with MCF7 breast, 23 µM.
Take `COCCOc1cc(F)c2c(Nc3ccc(NC(=O)Cn4cc(C(C)C)nn4)cc3)ncnc2c1`: the GI50 in the assay with DU-145 prostate, with MDA-MB-435 and with MCF7 breast was over 100 µM each time. Moreover, the TGI in the assay on DU-145 prostate, in the assay with MDA-MB-435 and with MCF7 breast was over 100 µM in each case.
With `Oc1[nH]c2ccccc2c1N=Nc1ccccc1Cl`, the TGI in the assay on MDA-N, with DU-145 prostate, in the assay with MDA-MB-435 and in the assay with MCF7 breast was over 100 µM in each case.
With `COC(=O)C1=C(C)N(NC(=O)c2ccccc2)C(C)(O)C12CCOC2=O` (stereo unspecified), the TGI in the assay with LXFL 529 NSCLC, in the assay on KM20L2 colon, in the assay on DMS 114 small cell lung and with DLD-1 colon was over 100 µM in each case.
Turning to `NC(=NCCCOc1ccc(Cl)cc1)Nc1ccc(C(F)(F)F)cc1`, the GI50 was 2.62 µM in the assay with DU-145 prostate, 1.73 µM in the assay on MDA-MB-435 and 1.72 µM in the assay with MCF7 breast. In addition, the TGI turned out to be 7.26 µM in the assay on DU-145 prostate, 3.45 µM with MDA-MB-435 and 4.85 µM in the assay on MCF7 breast.
As to `CC(=O)OC1Oc2ccccc2-c2oc(=O)c(-c3cc(=O)oc4cc(O)ccc34)cc21` (stereo unspecified), the GI50 is 19.4 µM in the assay on DU-145 prostate, 18.4 µM in the assay on MDA-MB-435 and 29.9 µM with MCF7 breast. The TGI with DU-145 prostate is 50.5 µM; in the assay on MDA-MB-435 it was 54.4 µM; in the assay with MCF7 breast it was over 100 µM.
As to `CC(SC(C)C(=O)N/N=C/c1cccc(Cl)c1)C(=O)N/N=C\c1cccc(Cl)c1` (stereo unspecified), the GI50 in the assay on DU-145 prostate was 6.58 µM; in the assay on MDA-MB-435 it was 5.02 µM; in the assay with MCF7 breast, 5.16 µM. In addition, the TGI was 25.2 µM with DU-145 prostate, 23.9 µM in the assay on MDA-MB-435 and 18.6 µM with MCF7 breast.
Regarding `CCCCCCCCCC/C=C/CC(=O)SCCNC(=O)CCNC(=O)[C@@H](O)C(C)(C)COP(=O)(O)OP(=O)(O)OCC1OC(n2cnc3c(N)ncnc32)C(O)C1OP(=O)(O)O` (stereo partly specified), the TGI in the assay with MDA-N, with DU-145 prostate, in the assay on MDA-MB-435 and with MCF7 breast was over 10 µM throughout.
On to `Cc1ccc(S(=O)(=O)NCC2CCCCC2=O)cc1` (stereo unspecified), for which the TGI in the assay on LXFL 529 NSCLC, in the assay with KM20L2 colon and in the assay on DMS 114 small cell lung was over 100 µM throughout.
Consider `Cc1c2cccnc2c(C)c2c1c1cc(CO)ccc1n2C`, for which the GI50 was 3.09 µM in the assay with DU-145 prostate, 3.06 µM in the assay with MDA-MB-435 and 0.501 µM in the assay on MCF7 breast. The TGI in the assay with DU-145 prostate came to 11.9 µM; in the assay with MDA-MB-435, 13.7 µM; with MCF7 breast it was 12.7 µM.
As to `CC(C)(C)OC(=O)NCC(=O)OCc1ccccc1`, the TGI in the assay with LXFL 529 NSCLC, with DMS 114 small cell lung and in the assay with DLD-1 colon was over 100 µM throughout.
For `Cc1nnc(S(=O)(=O)c2ccc(N=Nc3c(N)nc(N)nc3N)cc2)s1`, the TGI in the assay with MDA-N, in the assay on DU-145 prostate, in the assay on MDA-MB-435 and in the assay on MCF7 breast was over 100 µM each time.
For the compound `CC(C)(C)C(=O)OCOP(=O)(OCOC(=O)C(C)(C)C)C1CCCN(O)C1=O` (stereo unspecified), the GI50 with DU-145 prostate is 0.831 µM; in the assay with MDA-MB-435, 0.955 µM; in the assay on MCF7 breast, 0.338 µM. In addition, the TGI with DU-145 prostate is over 100 µM; in the assay with MDA-MB-435 it was 22.5 µM; with MCF7 breast, 3.86 µM.
Regarding `CCN1CCN(c2ccc(Nc3cc(N(C)C(=O)Nc4c(Cl)c(OC)cc(OC)c4Cl)ncn3)cc2)CC1`, the GI50 in the assay on DU-145 prostate was 2.33 µM; in the assay on MDA-MB-435, 1.86 µM; with MCF7 breast, 2.41 µM. The TGI with DU-145 prostate was determined as 9.75 µM; in the assay on MDA-MB-435 it was 3.71 µM; in the assay with MCF7 breast, 11.8 µM.
